Laboratory results from US20250000847A1, “TREATMENT OF NEURODEGENERATIVE DISEASES WITH HDAC INHIBITORS” (CASE WESTERN RESERVE UNIVERSITY, priority 2021, published 2025).

Columns and labels:
[1] = test system: very long chain fatty acids (VLCFA); experiment: Very long chain fatty acids produced by reactive astrocytes; assay type: cell-based; details: compared to cells treated with DMSO
[2] = test system: NF-κB (RelA/P65) transcriptional activity; experiment: NF-κB Jurkat reporter assay; assay type: cell-based
Description: NF-κB luciferase reporter Jurkat T-cells were used to measure NF-κB transcriptional activity in response to reactive astrocyte driving cytokines with or HDAC inhibitors and other validated hits from the primary screen. NFκB luciferase reporter Jurkat T-Cells (BPS Biosciences 60651) were purchased from BPS Bioscience. Within this cell line, the firefly luciferase gene is controlled by four copies of an NF-κB response element located upstream of the TATA promoter. Following activation by an external stimulant, endogenous NF-κB transcription factors bound to the DNA response elements to induce transcription of the luciferase gene.

[3] = test system: GBP2+ reactive astrocytes; experiment: Lipopolysaccharide (LPS) model of neuroinflammation, GBP2+ reactive astrocytes in brain; assay type: in vivo, mouse
Description: After which, brain tissue was collected from the mice and processed for in situ hybridization with probes targeting GFAP as a general astrocyte marker, and the reactive astrocyte-specific marker GBP2.
For in vivo studies in situ hybridization was performed using RNAscope Multiplex Fluorescent V2 Assay (ACD Bio, 323136) according to manufacturer's instructions for fixed frozen samples. Briefly, tissue was prepared by first dehydrating with increasingly higher percentages of ethanol, then dried, blocked with hydrogen peroxide, followed by antigen retrieval for 5 minutes, dried again, and then protein was digested using provided Protease III. RNA targeting probes purchased from ACD Bio were then annealed at 40° C. for 2 hrs, followed by washing and a series of amplification steps before finally tagging the RNA with Opal Dye fluorophores (Perkin Elmer). In situ hybridization Images were captured on a Hamamatsu Nanozoomer S60 Slide scanner with NDP 2.0 software. Image analysis was performed using Perkin Elmer Columbus automated software.

spinal cord LPC lesion = experiment: Lysolecithin (LPC) injection model of focal tissue damage; assay type: in vivo, mouse
Description: This was based on a toxin-based model of CNS tissue damage, where lysolecithin (lysophosphatidylcholine (LPC)) is injected into the dorsal column of the spinal cord leading to cell death, demyelination, and axonal damage at 4 days post lesion (dpl).
Focal tissue damage in the spinal cord was induced by the injection of 1% LPC solution. 10-12 week old C57BL/6 female mice were anesthetized using isoflurane and a T10 laminectomy was performed. 1 μL of 1% LPC was infused into the dorsal column at a rate of […]. The animals were euthanized at day twelve after the laminectomy (n=6-9 per group). […] Mice were then processed for immunohistochemistry or electron microscopy.
Samples were processed as previously described (Najm et al., Nat Methods 8, 957-962, doi:10.1038/nmeth.1712 (2011)). Briefly, Mice were perfused with 4% PFA, 2% glutaraldehyde, and 0.1 M sodium cacodylate. Spinal cords were extracted and samples were osmicated, stained en bloc with uranyl acetate and embedded in EMbed 812, an Epon-812 substitute (EMS). Thin sections were cut, carbon-coated and imaged either on JEOL JEM-1200-EX electron microscope or a T12 electron microscope (FEI).

RelA/P65 = experiment: Nuclear RelA/P65 in reactive astrocytes; assay type: cell-based, mouse
Description: For immunocytochemistry, cells were fixed with ice-cold 4% PFA for 15 minutes at room temperature, washed three times with PBS, blocked and permeabilized with 10% donkey serum and 0.1% Triton X-100 in PBS for 1 hr, and then stained with primary overnight followed by three washes with PBS, and then 1 hr incubation with Alexaflour secondary antibodies and DAPI. Stained cells were imaged using the PerkinElmer Operetta CLS High-Content Analysis System and analyzed using automated scripts in PerkinElmer Columbus Image Analysis software. Primary antibodies used were GBP2 (ProteinTech, 11854-1-AP), vimentin (BioLegend, 919101), RelA/P65 (Cell Signaling Tech, 6956), MBP (Abeam, AB7349).

[4] = test system: MHC Class I (H-2Kb) bound to OVA257-264 on reactive astrocytes; experiment: OVA257-264 peptide antigen cross presentation assay; assay type: cell-based, mouse
Description: To test whether HDAC inhibitors block the ability of reactive astrocytes to cross present exogenous antigen, cells were plated down in 96-well plates at a density of about 500 cells/mm^2. Cells were then treated with HDAC inhibitors for 1 hr prior to the addition of reactive astrocyte driving factors as the concentrations stated above. Cells were incubated for 24 hrs, after which, media was washed out and replaced with media containing the peptide fragment ovalbumin 257-264 (OVA257-264). Cells were then incubated overnight, and then stained for 2 hrs at 37° C. with APC-conjugated antibody against MHC Class I (H-2Kb) bound to OVA257-264, then visualized. The percent of H-2Kb positive cells as a percent of total live cells was determined (FIG. 3).
After 24 hours of treatment, these cells were cultured in the presence of the OVA257264 Peptide (GenScript RP10611 or Sigma S7951). After 12 hours, the cells were live-stained for two hours using a conjugated antibody targeted against an OVA257-264 peptide antigen. The cells were then fixed and imaged using the PerkinElmer Operetta CLS High-Content Analysis System.

CCL5 = CCL5 secretion by reactive astrocytes (ELISA); assay type: cell-based, mouse; details: for reduction of CCL5 secretion: compared to vehicle control
Description: Astrocytes were plated and treated exactly as described for the antigen cross presentation assay. However, after 24 hrs of incubation with either reactive astrocyte driving factors alone or with HDAC inhibitor treatment, conditioned media from the cells was collected and assayed for CCL5 using a commercially available colorimetric ELISA kit (RnD Cat #: DY478-05). Data was then fit to a standard four parameter logistic (4PL) curve and presented as pg/mL/cell, normalized to reactive astrocytes plus DMSO vehicle (FIG. 4).
Media was collected from mouse P2 primary astrocytes that had been cultured for 24 hrs in the presence of cytokines with and without HDAC3 inhibitors and compared to media from astrocytes not treated with cytokines. The concentration of CCL5, a cytokine secreted by reactive astrocytes, was measured in each of the respective media conditions based on the direct adsorption of CCL5 to a pre-coated capture antibody on the ELISA assay plate. The ELISA sandwich assay was performed according to the manufacturer's instructions (DY478-05, R&D Systems). Relative CCL5 concentration were measured based on absorbance measured by a plate reader.

[5] = 10 mg/kg daily, lesion at 12 dpl

**Q.** Which results are given for `Nc1cc(F)ccc1NC(=O)/C=C/c1cnn(C/C=C/c2ccccc2)c1` [RGFP966]?
**A.** levels of toxic very long chain fatty acids (VLCFA) [1]: decreased levels; RelA/P65 driven transcription (transcriptional activity) [2]: decreases; percentage of GFAP+ astrocytes expressing GBP2 ([3]; 10 mg/kg i.p. daily plus 5 mg/kg LPS, frontal cortex and corpus callosum, compared to vehicle plus LPS): lower percentage (about half); levels of GBP2+ reactive astrocytes ([3]; chronic treatment prior to LPS challenge, frontal cortex, cerebellum, brainstem, and corpus callosum): decreased levels; tissue repair (spinal cord LPC lesion; 10 mg/kg daily from −1 dpl, at 12 dpl, compared to vehicle-treated LPC mice): accelerated tissue repair; axons/mm^2 (spinal cord LPC lesion; [5]): increased; percentage of axons remyelinated (spinal cord LPC lesion; [5]): increased; total axons in lesions (spinal cord LPC lesion; [5]): increased; total remyelinated (spinal cord LPC lesion; [5]): increased; nuclear RelA/P65 (RelA/P65): decreases; ability of reactive astrocytes to cross present antigen on MHC Class I ([4]; FIG. 3): decrease; inhibition of antigen cross-presentation by MHC Class I ([4]; at either 2.5 or 5.0 μM): completely inhibited; reduction of CCL5 secretion (CCL5; 2.5 μM): about 70%; reduction of CCL5 secretion (CCL5; 5.0 μM): more than 80%; secretion of CCL5 by reactive astrocytes (CCL5; FIG. 4): significantly decrease
